Data reported in article PMC5573973 (Advanced Synthesis & Catalysis, 2017).

Assays:
[1] = target: T1, PAL from Petroselinum crispum (PcPAL) (Petroselinum crispum, UniProt P24481); assay: Steady-state inhibition kinetics of PcPAL-catalyzed deamination of L-Phe; assay type: biochemical
PAL [2] = conditions: cited from earlier work
Y110F mutant of PcPAL = Y110F mutant of PcPAL (Petroselinum crispum, UniProt P24481, Y110F); assay: Isothermal titration calorimetry with Y110F-PcPAL; assay type: binding; conditions: for Kd: PcPAL_Y110F K d, ITC, pH 8.0, 30 °C
PAL [3] = conditions: cited from earlier work; remark: listed apart in the source
[4] = target: T1, PAL from Petroselinum crispum (PcPAL); conditions: with PcPAL; cited from earlier work
Pseudomonas putida HAL = conditions: 9 mM, incubation for 120 min in the presence of oxygen; cited from earlier work

For `NC(C1(c2ccccc2)CC1)P(=O)(O)O.O` (racemic) [(±)‐6, 1-Amino-1-(1-phenylcyclopropyl)methyl-phosphonic acid hydrate], the Ki [1] was > 1000 µM, the Type of inhibition ([1]; best fitting inhibition model to the experimental data) was “No inh” and the “Inhibition with PcPAL” value ([1]; up to 1 mM concentration) was “no measurable inhibition”.

In the case of `N[C@H](Cc1ccccc1)C(=O)O` [(R)‐1, D‐phenylalanine], the Type of inhibition (PAL [2]) is listed as “competitive inhibitor”, the Kd (Y110F mutant of PcPAL) is listed as 29.1 µM and the ΔΔG (Y110F mutant of PcPAL; ΔΔG=ΔG wt−ΔG Y110F, contribution of the hydroxy group of Tyr110) is listed as -0.5 kcal/mol.

For `N[C@@H](Cc1ccccc1)C(=O)O` [(S)‐1, L‐phenylalanine], the Kd (Y110F mutant of PcPAL) is given as 23 µM and the “Rate of ammonia elimination relative to D-phenylalanine” value (PAL [3]) is given as “more than 4500 times”.

For `NC1(P(=O)(O)O)Cc2ccccc2C1` [AIP, 2‐aminoindan‐2‐phosphonic acid], the Ki (PAL [2]) is given as 0.025 µM and the Slow binding behavior [4] is given as “one‐step slow binding mechanism”.

For `NO[C@@H](Cc1ccccc1)C(=O)O` [AOPP, (S)‐2‐aminooxy‐3‐phenylpropanoic acid], the Ki (PAL [2]) is given as 0.00038 µM.

For `N[C@@H](CCS)C(=O)O` [L‐homocysteine], the “Inhibition of HAL” value (Pseudomonas putida HAL) is listed as “irreversibly inhibited”.
